In brackets after ≈: the same amount, converted by molar mass.
Experiments:
[1] = Toxicity in standardized culture assay; conditions: human
HBV replication = assay: Anti-HBV antiviral assay in standardized culture assay; conditions: for EC50: Hepatitis B virus, read-out: EC50 (anti-HBV activity); for activity against HBV replication (in words): human hepatoblastoma cell line, activity order 5 > 6 > 4 > 3 > 1 > 2 > 7; for SI (CC50/EC50): selectivity index, ratio of CC50 to EC50
[2] = HBV-producing human hepatoblastoma cell line

| Structure (SMILES) | CC50 [1] | EC50 (HBV replication) | activity against HBV replication (in words) (HBV replication) | SI (CC50/EC50) (HBV replication) | CC50 [1, 2] |
| --- | --- | --- | --- | --- | --- |
| N#C/C=C1/C=C[C@H](O)C[C@@H]1O[C@@H]1O[C@H](CO)[C@@H](O)[C@H](O)[C@H]1O [Compound 5, menisdaurin] | 57.8 ± 3.9 µg/mL (≈ 184 µM) | 5.1 ± 0.2 µg/mL (≈ 16.3 µM) | most effective activity | 11.3 |  |
| N#C/C=C1/CC[C@H](O)C[C@@H]1O[C@@H]1O[C@H](CO)[C@@H](O)[C@H](O)[C@H]1O [Compound 3, Menisdaurin D] | 182 ± 6.8 µg/mL (≈ 577 µM) | 19.4 ± 0.3 µg/mL (≈ 61.5 µM) |  | 9.4 |  |
| CO[C@H]1CC/C(=C/C#N)[C@@H](O[C@@H]2O[C@H](CO)[C@@H](O)[C@H](O)[C@H]2O)C1 [Compound 2, Menisdaurin C] | 165 ± 10.4 µg/mL (≈ 501 µM) | 30.7 ± 1 µg/mL (≈ 93.2 µM) |  | 5.4 |  |
| N#C/C=C1/CC[C@H](O)C[C@@H]1O [Compound 4, Menisdaurin E] |  | 8.7 ± 1.1 µg/mL (≈ 56.8 µM) |  | 8.3 | 72.3 ± 4.1 µg/mL (≈ 472 µM) |
| N#C/C=C1\C=C[C@H](O)C[C@@H]1O [Compound 6, coclauril] | 83.9 ± 2.3 µg/mL (≈ 555 µM) | 7.6 ± 0.5 µg/mL (≈ 50.3 µM) |  | 11.0 |  |
| Nc1ccn([C@@H]2CS[C@H](CO)O2)c(=O)n1 [Lamivudine, reference compound] |  | 0.1 ± 0.03 µg/mL (≈ 0.436 µM) |  |  |  |
| CO[C@H]1C=C/C(=C/C#N)[C@@H](O[C@@H]2O[C@H](CO)[C@@H](O)[C@H](O)[C@H]2O)C1 [Compound 1, Menisdaurin B] | 178 ± 13.3 µg/mL (≈ 544 µM) | 23.8 ± 0.5 µg/mL (≈ 72.7 µM) |  | 7.5 |  |
| O=C1C=C2C=C[C@@H](O)C[C@H]2O1 [Compound 7, menisdaurilide] |  | 80.7 ± 5.8 µg/mL (≈ 530 µM) | lesser degree of specific activity | 2.7 | 215 ± 14.7 µg/mL (≈ 1410 µM) |

— article PMC6332330, “Four New Cyclohexylideneacetonitrile Derivatives from the Hypocotyl of Mangrove (Bruguiera gymnorrhiza)” (Molecules, 2015)
